From ChEMBL document CHEMBL5729469, “Compounds for treating ILK-mediated diseases” (2022)

Target: Epidermal growth factor receptor (Homo sapiens, UniProt P00533)
Assay: Biochemical Assay: Thus, while these compounds were extensively used in studying ILK-mediated cellular and disease processes, their reported inhibitory effects are probably due to unknown artifacts or indirect binding events. Next, we turned our attention to previously reported studies on kinase profiling and quantitative chemical proteomics. These studies suggested that a widely known lung …

Chain of Epidermal growth factor receptor (P00533 whole entry): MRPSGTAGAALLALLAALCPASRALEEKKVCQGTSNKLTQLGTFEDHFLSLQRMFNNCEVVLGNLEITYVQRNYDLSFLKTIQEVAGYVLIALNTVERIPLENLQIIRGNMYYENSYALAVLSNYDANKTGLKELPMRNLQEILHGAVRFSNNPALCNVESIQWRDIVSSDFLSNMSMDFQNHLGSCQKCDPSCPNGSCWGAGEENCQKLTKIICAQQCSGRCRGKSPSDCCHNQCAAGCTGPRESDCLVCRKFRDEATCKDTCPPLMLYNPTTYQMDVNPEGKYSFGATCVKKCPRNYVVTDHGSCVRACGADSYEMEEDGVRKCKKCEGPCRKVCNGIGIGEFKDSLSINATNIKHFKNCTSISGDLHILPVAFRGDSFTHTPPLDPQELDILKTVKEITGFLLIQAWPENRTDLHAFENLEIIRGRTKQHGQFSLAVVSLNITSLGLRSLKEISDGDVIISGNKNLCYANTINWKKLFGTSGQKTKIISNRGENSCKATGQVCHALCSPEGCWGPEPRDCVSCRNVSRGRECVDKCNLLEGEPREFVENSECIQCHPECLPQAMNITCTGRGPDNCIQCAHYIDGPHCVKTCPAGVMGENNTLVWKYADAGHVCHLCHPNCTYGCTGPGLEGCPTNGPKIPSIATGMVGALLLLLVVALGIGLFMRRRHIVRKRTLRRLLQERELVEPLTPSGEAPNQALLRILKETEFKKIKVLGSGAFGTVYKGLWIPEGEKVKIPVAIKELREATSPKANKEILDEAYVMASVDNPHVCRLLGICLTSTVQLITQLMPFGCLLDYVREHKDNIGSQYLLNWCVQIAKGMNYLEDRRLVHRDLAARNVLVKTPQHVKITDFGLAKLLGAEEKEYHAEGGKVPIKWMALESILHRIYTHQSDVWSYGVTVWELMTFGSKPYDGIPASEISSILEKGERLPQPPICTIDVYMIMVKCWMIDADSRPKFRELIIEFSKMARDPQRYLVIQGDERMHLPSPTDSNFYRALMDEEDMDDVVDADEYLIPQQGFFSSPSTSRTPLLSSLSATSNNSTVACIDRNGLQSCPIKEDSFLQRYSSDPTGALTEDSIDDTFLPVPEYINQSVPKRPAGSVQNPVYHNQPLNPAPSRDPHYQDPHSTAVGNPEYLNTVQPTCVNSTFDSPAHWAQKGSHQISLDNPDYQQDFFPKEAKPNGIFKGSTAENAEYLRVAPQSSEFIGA

Compound | Kd
C#Cc1cc(C#C)cc(Nc2ncnc3cc(OC)c(OC)cc23)c1 | 1150 nM
C#Cc1cc(Nc2ncnc3cc(OCCOC)ccc23)cc(OCCOCC)c1 | 17700 nM
C#Cc1cc(Nc2ncnc3cc(OCCOC)c(OCCOC)cc23)ccc1C | 745 nM
